The target in the assay is human CB1 (cannabinoid receptor 1) (Homo sapiens, UniProt P21554). In words: CB1 receptor inhibition effect: calcium ion influx assay (Fluo-4 NW) in Chem-1 cells after 1 μM R-(+)-WIN55212-2. It counts as cell-based. To be noted: calcium ion influx in Chem-1 cells expressing human CB1, 1 μM R-(+)-WIN55212-2. On the procedure:
When cells in which the cannabinoid receptor 1 (CB1) is stably expressed are treated with a CB1 receptor agonist, the CB1 receptor is activated and influx of calcium ions into the cells increases. CB1 receptor inhibition effect of a test compound can be evaluated by measuring the degree of calcium influx inhibition after treating with the test compound.
First, Chem-1 cells (Chemicon International, #HTS019C) in which human CB1 cDNA is expressed stably were seeded onto a 96-well cell culture plate at a density of ˜50,000 cells/well and incubated overnight in a 5% CO2 incubator at 37° C. The next day, the culture medium was discarded and the cells were cautiously washed once using an assay buffer (HBSS containing 20 mM HEPES and 2.5 mM probenecid) with 200 μL/well. Calcium ion influx was measured using an assay kit (Fluo-4 NW calcium assay kit: Molecular Probes™, #F36206) according to the manufacturer's instructions. The compounds of Examples of desired concentration to be measured were comprised to 0.5% DMSO. For control, only 0.5% DMSO was used without the compounds of Examples. Reaction time was 10 minutes. After treating the Chem-1 cells stably expressing the CB1 receptor with 1 μM R-(+)-WIN55212-2 (Sigma, #W102), a CB1 receptor agonist, calcium ion (Ca^2+) flux induced thereby was measured for 80 seconds using Flex Station 3 (Molecular Device, USA).
The difference in calcium ion concentration of the cells treated with the compounds of Examples or those treated with 1 μM R-(+)-WIN55212-2 was obtained from the difference of the maximum and minimum values during the 80 seconds. Then, % inhibition of the compounds for the CB1 receptor was calculated using the following equation. % inhibition={1−(ΔRFUcompound−ΔRFUBlank)/(ΔRFUControl−ΔRFUBlank)}×100 [Equation]
ΔRFU: maximum relative fluorescence units−minimum relative fluorescence units
ΔRFUCompound: difference in maximum and minimum RFUs in the well where the compounds of Examples dissolved in DMSO to a final concentration of 0.5% and 1 μM R-(+)-WIN55212-2 dissolved in DMSO to a final concentration of 0.5% were added
ΔRFUBlank: difference in maximum and minimum RFUs in the well to which only 1% DMSO was added
ΔRFUControl: difference in maximum and minimum RFUs in the well where 0.5% DMSO and 1 μM R-(+)-WIN55212-2 dissolved in DMSO to a final concentration of 0.5% were added

These results are taken from US8975264B2, “Compound acting as a cannabinoid receptor-1 inhibitor” (Amorepacific Corporation, priority 2010, dated 2015).

SMILES strings stand for the structures. pIC50: −log10 of the molar value.

Sequence of human CB1 (cannabinoid receptor 1) (P21554 whole entry): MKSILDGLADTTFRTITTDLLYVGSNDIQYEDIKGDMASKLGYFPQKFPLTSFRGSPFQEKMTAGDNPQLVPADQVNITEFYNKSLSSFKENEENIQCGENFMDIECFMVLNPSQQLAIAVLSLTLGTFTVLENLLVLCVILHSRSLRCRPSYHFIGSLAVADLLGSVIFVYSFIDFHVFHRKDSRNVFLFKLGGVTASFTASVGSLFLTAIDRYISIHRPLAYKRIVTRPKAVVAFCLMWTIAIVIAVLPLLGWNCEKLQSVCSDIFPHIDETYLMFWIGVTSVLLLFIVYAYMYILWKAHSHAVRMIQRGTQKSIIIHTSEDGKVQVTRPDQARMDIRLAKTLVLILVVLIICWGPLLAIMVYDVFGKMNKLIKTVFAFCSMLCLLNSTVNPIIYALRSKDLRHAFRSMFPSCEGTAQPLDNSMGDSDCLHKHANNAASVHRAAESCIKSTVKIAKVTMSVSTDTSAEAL

For orientation: pIC50 means the negative decadic logarithm of the IC50, by convention in mol/L. On to `Cc1nn2c(-c3ccc(F)c(Cl)c3)cc(N3CCC[C@H]3CO)nc2c1-c1ccc(F)cc1` [Example 192], for which the pIC50 is 6.82. On to `CCOCc1nn2c(-c3cccc(F)c3)cc(N3CCC[C@H]3CO)nc2c1-c1ccc(OC)cc1` [Example 210], for which the pIC50 was 6.77. Next, `COc1ccc(-c2c(C)nn3c(-c4ccccc4)cc(N4CCC[C@H]4CO)nc23)cc1` [Example 37, (S)-(1-(3-(4-methoxyphenyl)-7-phenyl-2-methylpyrazolo[1,5-a]pyrimidin-5-yl)pyrrolidin-2-yl)methanol]: 6.85. Turning to `CCOc1ccc(-c2c(C)nn3c(-c4ccc(F)cc4)cc(N4CCC[C@H]4CO)nc23)cc1` [Example 65], the pIC50 was 7.00. Next, `COc1ccc(-c2c(C)nn3c(-c4cccc(C)c4)cc(N4CCC[C@H]4CO)nc23)cc1` [Example 157, (S)-(1-(3-(4-methoxyphenyl)-7-(3-methylphenyl)-2-methylpyrazolo[1,5-a]pyrimidin-5-yl)pyrrolidin-2-yl)methanol]: 6.68; `COCc1nn2c(-c3cccc(C(F)(F)F)c3)cc(N3CCC[C@H]3CO)nc2c1-c1ccc(Cl)cc1` [Example 233]: 8.22; `CCc1ccc(-c2c(C)nn3c(-c4ccc(F)cc4)cc(N4CCC[C@H]4CO)nc23)cc1` [Example 70]: 6.64. Under `COc1ccc(-c2c(C)nn3c(-c4ccc(F)cc4)cc(N4CCC[C@H]4CO)nc23)cc1` [Example 64, (S)-(1-(3-(4-methoxyphenyl)-7-(4-fluorophenyl)-2-methylpyrazolo[1,5-a]pyrimidin-5-yl)pyrrolidin-2-yl)methanol] stands 6.77; under `Cc1ccc(-c2c(C)nn3c(-c4ccc(F)c(F)c4)cc(N4CCC[C@H]4CO)nc23)cc1` [Example 26, (S)-(1-(3-(4-methylphenyl)-7-(3,4-difluorophenyl)-2-methylpyrazolo[1,5-a]pyrimidin-5-yl)pyrrolidin-2-yl)methanol], 7.28; under `COCc1nn2c(-c3cccc(Cl)c3)cc(N3CCC[C@H]3CO)nc2c1-c1ccc(OC)cc1` [Example 230], 7.74. Next, `Cc1nn2c(-c3ccccc3)cc(N3CCC[C@H]3CO)nc2c1-c1ccc2c(c1)OCO2` [Example 56, (S)-(1-(3-(3,4-methylenedioxyphenyl)-7-(phenyl)-2-methylpyrazolo[1,5-a]pyrimidin-5-yl)pyrrolidin-2-yl)methanol]: 7.05. On to `Cc1ccc(-c2c(C)nn3c(-c4cccc(C(F)(F)F)c4)cc(N4CCC[C@H]4CO)nc23)cc1` [Example 122], for which the pIC50 was 7.35. In the case of `CCc1nn2c(-c3ccc(F)cc3)cc(N3CCC[C@H]3CO)nc2c1-c1ccc(C)cc1` [Example 198, (S)-(1-(3-(4-methylphenyl)-7-(4-fluorophenyl)-2-ethylpyrazolo[1,5-a]pyrimidin-5-yl)pyrrolidin-2-yl)methanol], the pIC50 was 7.30. Regarding `CCCCc1nn2c(-c3cccc(C)c3)cc(N3CCC[C@H]3CO)nc2c1-c1ccc(C)cc1` [Example 289], the pIC50 was 7.52. Under `Cc1ccc(-c2c(C)nn3c(-c4cccc(Cl)c4)cc(N4CCC[C@H]4CO)nc23)cc1` [Example 170] stands 6.80; under `CCOCc1nn2c(-c3cccc(Cl)c3)cc(N3CCC[C@H]3CO)nc2c1-c1ccc2c(c1)OCO2` [Example 217], 6.82. Under `Cc1nn2c(-c3ccccc3F)cc(N3CCC[C@H]3CO)nc2c1-c1ccc(Cl)cc1` [Example 4] stands 6.44. Next, `COc1ccc(-c2c(C)nn3c(-c4cc(F)cc(F)c4)cc(N4CCC[C@H]4CO)nc23)cc1` [Example 45]: 6.92; `CCOCc1nn2c(-c3cccc(C(F)(F)F)c3)cc(N3CCC[C@H]3CO)nc2c1-c1ccc(C)cc1` [Example 204]: 8.22. For the compound `Cc1nn2c(-c3ccccc3F)cc(N3CCC[C@H]3CO)nc2c1-c1ccc2c(c1)OCO2` [Example 57], the pIC50 was 6.62. For the compound `CCCc1ccc(-c2c(C)nn3c(-c4ccc(F)cc4)cc(N4CCC[C@H]4CO)nc23)cc1` [Example 72], the pIC50 was 6.46. With `OC[C@@H]1CCCN1c1cc(-c2cccc(F)c2)n2nc(C3CC3)c(-c3ccc(Cl)cc3)c2n1` [Example 197], the negative logarithm of the IC50 (pIC50) was 6.82.

Regarding `Cc1ccc(-c2c(C)nn3c(-c4ccccc4F)cc(N4CCC[C@H]4CO)nc23)cc1` [Example 33], the pIC50 is 7.09.

As for `CCOCc1nn2c(-c3cccc(Cl)c3)cc(N(C)CCO)nc2c1-c1ccc2c(c1)OCO2` [Example 254], the pIC50 was 6.89. Next, `CCOCc1nn2c(-c3cccc(F)c3)cc(N3CCC[C@H]3CO)nc2c1-c1ccc2c(c1)OCO2` [Example 214]: 7.10; `CCOCc1nn2c(-c3cccc(Cl)c3)cc(N(C)CCO)nc2c1-c1ccc(OC)cc1` [Example 248]: 6.22. Under `COc1ccc(-c2c(C)nn3c(-c4cccc(Cl)c4)cc(N4CCC[C@H]4CO)nc23)cc1` [Example 169, (S)-(1-(3-(4-methoxyphenyl)-7-(3-chlorophenyl)-2-methylpyrazolo[1,5-a]pyrimidin-5-yl)pyrrolidin-2-yl)methanol] stands 7.48. As for `Cc1nn2c(-c3ccc(F)cc3)cc(N3CCC[C@H]3CO)nc2c1-c1ccc(C(F)F)cc1` [Example 67], the pIC50 was 7.03. With `CCOCc1nn2c(-c3cccc(F)c3)cc(N3CCC[C@H]3CO)nc2c1-c1ccc(C)cc1` [Example 202], the pIC50 is 8.30.

For the compound `CCCOc1ccc(-c2c(C)nn3c(-c4ccc(C)cc4)cc(N4CCC[C@H]4CO)nc23)cc1` [Example 194], the pIC50 is 6.70. Next, `Cc1ccc(-c2cc(N3CCC[C@H]3CO)nc3c(-c4ccc(C(F)(F)F)cc4)c(C)nn23)cc1` [Example 180]: 6.39. Take `Cc1nn2c(-c3cccc(C(F)(F)F)c3)cc(N3CCC[C@H]3CO)nc2c1-c1ccc(C(F)(F)F)cc1` [Example 128]: the pIC50 is 7.18. Next, `COc1ccc(-c2c(C)nn3c(-c4cccc(C(F)(F)F)c4)cc(N4CCC[C@H]4CO)nc23)cc1` [Example 123]: 7.12; `Cc1nn2c(-c3ccc(F)cc3)cc(N3CCC[C@H]3CO)nc2c1-c1ccc(Cl)c(Cl)c1` [Example 96]: 6.51. Next, `COc1ccc(-c2c(C)nn3c(-c4ccccc4F)cc(N4CCC[C@H]4CO)nc23)cc1` [Example 39]: 6.60; `CCOc1ccc(-c2c(C)nn3c(-c4cccc(OC)c4)cc(N4CCC[C@H]4CO)nc23)cc1` [Example 51]: 6.60.

As for `Cc1nn2c(-c3cccc(Cl)c3)cc(N3CCC[C@H]3CO)nc2c1-c1ccc2c(c1)OCO2` [Example 172], the pIC50 is 6.72. Next, `CCc1ccc(-c2c(C)nn3c(-c4cccc(C(F)(F)F)c4)cc(N4CCC[C@H]4CO)nc23)cc1` [Example 129]: 7.14; `COc1ccc(-c2c(C)nn3c(-c4cccc(OC)c4)cc(N4CCC[C@H]4CO)nc23)cc1` [Example 41]: 6.59. Next, `CCOc1ccc(-c2c(C)nn3c(-c4ccc(C)cc4)cc(N4CCC[C@H]4CO)nc23)cc1` [Example 53]: 6.41; `Cc1ccc(-c2c(C)nn3c(-c4ccc(F)c(Cl)c4)cc(N4CCC[C@H]4CO)nc23)cc1F` [Example 185]: 6.68. As for `COCc1nn2c(-c3cccc(C(F)(F)F)c3)cc(N3CCC[C@H]3CO)nc2c1-c1ccc(OC)cc1` [Example 221, (S)-{1-[2-methoxymethyl-7-(3-(trifluoromethyl)phenyl)-3-(4-methoxyphenyl)-pyrazolo[1,5-a]pyrimidin-5-yl]pyrrolidin-2-yl}methanol], the pIC50 was 8.15.

As for `CSc1ccc(-c2c(C)nn3c(-c4ccc(F)cc4)cc(N4CCC[C@H]4CO)nc23)cc1` [Example 68], the negative logarithm of the IC50 (pIC50) was 6.77. Next, `C=Cc1ccc(-c2c(C)nn3c(-c4cccc(C)c4)cc(N4CCC[C@H]4CO)nc23)cc1` [Example 165]: 6.48; `COCc1nn2c(-c3cccc(OC)c3)cc(N3CCC[C@H]3CO)nc2c1-c1ccc(OC)cc1` [Example 226]: 7.30; `Cc1ccc(-c2c(C)nn3c(-c4ccc(F)c(F)c4)cc(N4CCC[C@H]4CO)nc23)cc1F` [Example 184]: 6.82.

For the compound `Cc1ccc(-c2c(C)nn3c(-c4ccc(C)cc4)cc(N4CCC[C@H]4CO)nc23)cc1` [Example 30], the pIC50 was 6.80. With `OC[C@@H]1CCCN1c1cc(-c2cccc(C(F)(F)F)c2)n2ncc(-c3ccc(F)cc3)c2n1` [Example 276], the pIC50 was 6.47. Under `Cc1ccc(-c2c(C)nn3c(-c4cccc(Cl)c4)cc(N4CCC[C@H]4CO)nc23)cc1F` [Example 176] stands 6.57.
